Laboratory results as given in ChEMBL document CHEMBL1649310, “Complete nucleotide sequence of Klebsiella pneumoniae multidrug resistance plasmid pKP048, carrying blaKPC-2, blaDHA-1, qnrB4, and armA” (2010).
≈ marks a conversion by molar mass, not a printed value.

Experiments:
Assay type in all cases: functional
Klebsiella pneumoniae [1] = test: Antimicrobial activity against Klebsiella pneumoniae isolate 048 expressing beta-lactamase KPC-2, DHA-1, qnrB4 and armA by Etest
Escherichia coli [2] = test: Antimicrobial activity against Escherichia coli isolate CKP048 transconjugant harboring beta-lactamase KPC-2, DHA-1, qnrB4 and armA by Etest
Escherichia coli [3] = test: Antimicrobial activity against lacZ-negative, Nalidixic acid-, rifampicin-resistant Escherichia coli EC600 by Etest
Klebsiella pneumoniae [4] = test: Antimicrobial activity against Klebsiella pneumoniae isolate 048 expressing beta-lactamase KPC-2, DHA-1, qnrB4 and armA by Etest in presence of beta-lactamase inhibitor Tazobactam
Escherichia coli [5] = test: Antimicrobial activity against Escherichia coli isolate CKP048 transconjugant harboring beta-lactamase KPC-2, DHA-1, qnrB4 and armA by Etest in presence of beta-lactamase inhibitor Tazobactam
Escherichia coli [6] = test: Antimicrobial activity against lacZ-negative, Nalidixic acid-, rifampicin-resistant Escherichia coli EC600 by Etest in presence of beta-lactamase inhibitor Tazobactam

## C[C@@H](O)[C@H]1C(=O)N2C(C(=O)O)=C(S[C@@H]3CN[C@H](C(=O)Nc4cccc(C(=O)O)c4)C3)[C@H](C)[C@H]12
Klebsiella pneumoniae [1]
  MIC: 32 µg/mL (≈ 67.3 µM)
Escherichia coli [2]
  MIC: 8 µg/mL (≈ 16.8 µM)
Escherichia coli [3]
  MIC: 0.016 µg/mL (≈ 0.0336 µM)

## NCC[C@H](O)C(=O)N[C@@H]1C[C@H](N)[C@@H](O[C@H]2O[C@H](CN)[C@@H](O)[C@H](O)[C@H]2O)[C@H](O)[C@H]1O[C@H]1O[C@H](CO)[C@@H](O)[C@H](N)[C@H]1O [AMIKACIN]
Klebsiella pneumoniae [1]
  MIC: > 256 µg/mL
Escherichia coli [2]
  MIC: > 256 µg/mL
Escherichia coli [3]
  MIC: 1 µg/mL (≈ 1.71 µM)

## CO[C@@]1(NC(=O)Cc2cccs2)C(=O)N2C(C(=O)O)=C(COC(N)=O)CS[C@@H]21 [CEFOXITIN]
Klebsiella pneumoniae [1]
  MIC: 256 µg/mL (≈ 599 µM)
Escherichia coli [2]
  MIC: 128 µg/mL (≈ 299 µM)
Escherichia coli [3]
  MIC: 2 µg/mL (≈ 4.68 µM)

## CC(C)(O/N=C(\C(=O)N[C@@H]1C(=O)N2C(C(=O)[O-])=C(C[n+]3ccccc3)CS[C@H]12)c1csc(N)n1)C(=O)O [CEFTAZIDIME]
Klebsiella pneumoniae [1]
  MIC: 96 µg/mL (≈ 176 µM)
Escherichia coli [2]
  MIC: 32 µg/mL (≈ 58.5 µM)
Escherichia coli [3]
  MIC: 0.064 µg/mL (≈ 0.117 µM)

## C[C@@H](O)[C@H]1C(=O)N2C(C(=O)O)=C(SCCNC=N)C[C@H]12 [IMIPENEM ANHYDROUS]
Klebsiella pneumoniae [1]
  MIC: > 32 µg/mL
Escherichia coli [2]
  MIC: 3 µg/mL (≈ 10 µM)
Escherichia coli [3]
  MIC: 0.25 µg/mL (≈ 0.835 µM)

## C[C@@H](O)[C@H]1C(=O)N2C(C(=O)O)=C(S[C@@H]3CN[C@H](C(=O)N(C)C)C3)[C@H](C)[C@H]12 [MEROPENEM]
Klebsiella pneumoniae [1]
  MIC: > 32 µg/mL
Escherichia coli [2]
  MIC: 2 µg/mL (≈ 5.22 µM)
Escherichia coli [3]
  MIC: 0.094 µg/mL (≈ 0.245 µM)

## CCN1CCN(C(=O)N[C@@H](C(=O)N[C@@H]2C(=O)N3[C@@H]2SC(C)(C)[C@@H]3C(=O)O)c2ccccc2)C(=O)C1=O [PIPERACILLIN]
Klebsiella pneumoniae [4]
  MIC: > 256 µg/mL
Escherichia coli [5]
  MIC: > 256 µg/mL
Escherichia coli [6]
  MIC: 2 µg/mL

## CN(C)c1cc(NC(=O)CNC(C)(C)C)c(O)c2c1C[C@H]1C[C@H]3[C@H](N(C)C)C(O)=C(C(N)=O)C(=O)[C@@]3(O)C(O)=C1C2=O [TIGECYCLINE]
Klebsiella pneumoniae [1]
  MIC: 0.38 µg/mL (≈ 0.649 µM)
Escherichia coli [2]
  MIC: 0.125 µg/mL (≈ 0.213 µM)
Escherichia coli [3]
  MIC: 0.125 µg/mL (≈ 0.213 µM)

## COLISTIN
Klebsiella pneumoniae [1]
  MIC: 0.38 µg/mL
Escherichia coli [2]
  MIC: 0.38 µg/mL
Escherichia coli [3]
  MIC: 0.25 µg/mL
